Results taken from article PMC7529893, “Structural basis for substrate recognition and chemical inhibition of oncogenic MAGE ubiquitin ligases” (Nature Communications, 2020).

biological target: T1, MAGE-A11:PCF11 interaction (GST-MAGE-A11 and FAM-PCF11_4) (Homo sapiens, UniProt P43364); assay: TR-FRET primary / single point screen at 15 µM; assay type: binding; conditions: single point TR-FRET screening of 797 quinoline compounds against MAGE-A11:PCF11
T1 construct: GST-MAGE-A11 MHD (human MAGE-A11 MHD amino acid 218-429); made in house; host or cells: E. coli BL21(DE3)
T1 sequence (P43364 218-429): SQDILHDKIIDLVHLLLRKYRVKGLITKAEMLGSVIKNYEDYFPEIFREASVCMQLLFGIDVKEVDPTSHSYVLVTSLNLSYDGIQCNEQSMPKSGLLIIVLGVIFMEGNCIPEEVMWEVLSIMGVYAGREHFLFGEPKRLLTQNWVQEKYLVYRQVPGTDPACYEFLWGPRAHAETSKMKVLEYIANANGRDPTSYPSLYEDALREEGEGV
Outline: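 Single-point screen at 15 µM final compound in 50 mM Tris pH 7.5, 20 mM MgCl2, 0.1 mg/ml BSA, 1 mM DTT, with 200 nM FAM-PCF11_4, 5 nM Tb-anti-GST and 5 nM GST-MAGE-A11. After 90 min at room temperature, the 520/490 nm TR-FRET ratio (340 nm excitation) gave %Inhibition against no-MAGE-A11 and DMSO controls.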

Row | SMILES | percent inhibition (TR-FRET)
1 | Clc1ccc2c(NCCCCN(Cc3ccccc3)Cc3nccs3)ccnc2c1 [SJ000520448] | -1.698
2 | CCCCN(CCCCNc1ccnc2cc(Cl)ccc12)Cc1ccccc1 [SJ000357538] | 27.6387
3 | CCN1CCN(c2c(S(=O)(=O)c3ccc(C)c(C)c3)cnc3ccc(F)cc23)CC1 [SJ000247345] | 1.118
4 | COc1ccc2ncc(S(=O)(=O)c3ccccc3)c(N3CCN(c4ccc(F)cc4)CC3)c2c1 [SJ000083978] | -133.117
5 | COc1ccc(N2CCN(c3c(S(=O)(=O)c4ccc(C)cc4)cnc4ccc(Cl)cc34)CC2)cc1 [SJ000117072] | -5.838
6 | CCc1ccc2ncc(S(=O)(=O)c3ccc(C)c(C)c3)c(N3CCN(CC)CC3)c2c1 [SJ000247334] | -4.712
7 | CC(C)(C)CCN(CCCCNc1ccnc2cc(Cl)ccc12)Cc1ccccc1 [SJ000357537] | 34.5391
8 | COc1ccc(-c2csc(N3CCN(c4cc(C)nc5ccccc45)CC3)n2)cc1OC [SJ000114009] | -53.4343
9 | CCOC(=O)c1cnc2c(C)cc(C)cc2c1NCCN1CCOCC1 [SJ000172983] | 8.869
10 | COc1ccc2nc3cc(Cl)ccc3c(NCCCNCc3ccc4c(c3)OCO4)c2c1 [SJ000361085] | -363.307
11 | Clc1ccc2c(NCCCCN(Cc3ccccc3)Cc3cccc4c3OCO4)ccnc2c1 [SJ000520436] | 21.6545
12 | CCOC(=O)c1cnc2ccc(C(=O)O)cc2c1N1CCN(CCO)CC1 [SJ000280902] | -0.5958
13 | CCc1ccc2ncc(S(=O)(=O)c3ccc(C)c(C)c3)c(N3CCN(C)CC3)c2c1 [SJ000247332] | 2.973
14 | CCOC(=O)c1cnc2c(C)c(C)ccc2c1NCCN(C)C [SJ000134078] | 8.5376
15 | COc1ccc(S(=O)(=O)N2CCN(c3ccnc4cc(Cl)ccc34)CC2)cc1 [SJ000199955] | -32.0719
16 | O=[N+]([O-])c1cccc(CN(CCCCNc2ccnc3cc(Cl)ccc23)Cc2ccccc2)c1 [SJ000361201] | 24.3707
17 | O=S(=O)(c1ccc(F)cc1)c1cnc2ccc(Cl)cc2c1N1CCN(c2ccc(F)cc2)CC1 [SJ000117063] | -4.205
18 | CC(Nc1c2ccccc2nc2ccccc12)C(=O)NC(CC(N)=O)C(=O)O (centres unmarked) [SJ000016433] | 22.7145
19 | CCc1ccc2ncc(S(=O)(=O)c3ccc(OC)cc3)c(N3CCN(C)CC3)c2c1 [SJ000083954] | -5.969
20 | COc1ccc2nc3cc(Cl)ccc3c(NCCCNCc3cccs3)c2c1 [SJ000361088] | -453.536
21 | COc1ccc2ncc(S(=O)(=O)c3ccc(Cl)cc3)c(N3CCN(C)CC3)c2c1 [SJ000083952] | -3.658
22 | CCOC(=O)c1cnc2c(C)c(Cl)ccc2c1NCCN(C)C [SJ000037393] | -1.333
23 | CCOC(=O)c1cnc2c(C(=O)OC)cccc2c1NCCN1CCOCC1 [SJ000184799] | 4.043
24 | Cc1ccc(S(=O)(=O)c2cnc3ccc(C)cc3c2N2CCN(c3ccc(F)cc3)CC2)cc1 [SJ000117058] | -4.068

Results, then the compound that gave them:

Row | percent inhibition (TR-FRET) | SMILES
25 | -133.032 | COC(=O)c1ccc(CNCCCNc2c3ccc(Cl)cc3nc3ccc(OC)cc23)cc1 [SJ000522957]
26 | -340.253 | COc1ccc2nc3cc(Cl)ccc3c(NCCCNCCC(C)c3ccccc3)c2c1 (centres unmarked) [SJ000523027]
27 | -97.8295 | COc1ccc2nc3cc(Cl)ccc3c(NCCCNCc3ccc(Cl)cc3Cl)c2c1 [SJ000522958]
28 | -286.942 | CCCCN(CCC)CCCNc1c2ccc(Cl)cc2nc2ccc(OC)cc12 [SJ000522971]
29 | -118.624 | CCCN(CCCNc1c2ccc(Cl)cc2nc2ccc(OC)cc12)Cc1ccc(C(=O)OC)cc1 [SJ000523018]
30 | -390.355 | CCc1ccc(CNCCCNc2c3ccc(Cl)cc3nc3ccc(OC)cc23)cc1 [SJ000521005]
31 | -288.202 | CCCN(CCC)CCCNc1c2ccc(Cl)cc2nc2ccc(OC)cc12 [SJ000520917]
32 | 18.6767 | Cc1ccc(C)c(CN2CCC(Nc3ccnc4cc(Cl)ccc34)CC2)c1 [SJ000523106]
33 | -244.583 | CCCN(CCCNc1c2ccc(Cl)cc2nc2ccc(OC)cc12)Cc1cccc(OC)c1 [SJ000520961]
34 | -177.507 | CCCN(CCCNc1c2ccc(Cl)cc2nc2ccc(OC)cc12)Cc1ccc(OC)c(F)c1 [SJ000522963]
35 | 16.5062 | Clc1ccc2c(NCCCCN(Cc3ccccc3)Cc3ccc4c(c3)OCO4)ccnc2c1 [SJ000522723]
36 | -200.963 | COc1ccc2nc3cc(Cl)ccc3c(NCCCNCc3ccc(OC(F)(F)F)cc3)c2c1 [SJ000520992]

same assay, conditions: single point TR-FRET screening of quinoline compounds against MAGE-A11:PCF11; 15 µM

Row | SMILES | percent inhibition (TR-FRET)
37 | Clc1ccc2c(NCCCN(Cc3ccccc3)Cc3cccs3)ccnc2c1 [SJ000312672] | 4.744
38 | Cc1cc(C)cc(Cc2ccc3c(NCCCNCc4ccco4)ccnc3c2)c1 [SJ000311318] | 39.3055
39 | Clc1ccc2c(NCCCN(Cc3ccccc3)Cc3ccc(Br)s3)ccnc2c1 [SJ000357461] | 27.4987
40 | CCCCCCN(CCCNc1ccnc2cc(Cl)ccc12)Cc1ccccc1 [SJ000361189] | -40.7502
41 | CCCN(CCCNc1ccnc2cc(Cl)ccc12)Cc1ccc(C)o1 [SJ000357437] | 20.147
42 | COc1ccc2nc3cc(Cl)ccc3c(NCCCNCc3c4ccccc4cc4ccccc34)c2c1 [SJ000361099] | -3.728
43 | CCC(CC)CNCCCNc1ccnc2cc(C(F)(F)F)ccc12 [SJ000361111] | 24.3255
44 | Cc1ccc(CN(CCCNc2ccnc3cc(Cl)ccc23)Cc2ccccc2)s1 [SJ000312673] | 4.629
45 | COc1ccc(F)cc1CN(CCCNc1ccnc2cc(Cl)ccc12)Cc1ccccc1 [SJ000357495] | 6.683
46 | Clc1ccc2c(NCCCN(Cc3ccccc3)Cc3c[nH]c4ccccc34)ccnc2c1 [SJ000520433] | 40.1907
47 | Oc1ccccc1CN(CCCNc1ccnc2cc(Cl)ccc12)Cc1ccccc1 [SJ000361167] | 19.2696
48 | FC(F)(F)c1ccc2c(NCCCNCC3CC3)ccnc2c1 [SJ000361108] | 22.8076
49 | O=[N+]([O-])c1cccc(CN(CCCNc2ccnc3cc(Cl)ccc23)Cc2ccccc2)c1 [SJ000361178] | 17.0172
50 | CCCN(CCCNc1ccnc2cc(C(F)(F)F)ccc12)Cc1ccc2c(c1)OCO2 [SJ000361270] | 5.623
51 | CCCN(CCCNc1ccnc2cc(C(F)(F)F)ccc12)CC1CC1 [SJ000361266] | 48.1534
52 | FC(F)(F)c1cccc(Cc2ccc3c(NCCCNCc4ccco4)ccnc3c2)c1 [SJ000311298] | 27.0086
53 | CCCN(CCCNc1ccnc2cc(C(F)(F)F)ccc12)Cc1ccc[nH]1 [SJ000361255] | 30.6641
54 | CCOC(=O)c1cnc2c(C)cc(C)cc2c1NCCCN(C)C [SJ000037397] | 14.9289
55 | CCCN(CCCNc1ccnc2cc(Cl)ccc12)Cc1cccnc1 [SJ000357446] | 7.809

The next lines start with the values.

Row | percent inhibition (TR-FRET) | SMILES
56 | -21.5824 | CCCN(CCCNc1c2ccc(Cl)cc2nc2ccc(OC)cc12)Cc1cc2ccccc2s1 [SJ000522962]
57 | -71.0252 | CCCN(CCCNc1c2ccc(Cl)cc2nc2ccc(OC)cc12)Cc1ccc(Cl)c([N+](=O)[O-])c1 [SJ000522738]
58 | 32.8899 | CCCN(CCCNc1ccnc2cc(C(F)(F)F)ccc12)Cc1ccc2[nH]ccc2c1 [SJ000575171]
59 | -9.243 | CCCN(CCCNc1ccnc2cc(C(F)(F)F)ccc12)Cc1cc(Br)cs1 [SJ000520478]
60 | -51.6891 | CCCN(CCCNc1c2ccc(Cl)cc2nc2ccc(OC)cc12)Cc1csc2ccccc12 [SJ000522970]
61 | 4.323 | CCCN(CCCNc1ccnc2cc(C(F)(F)F)ccc12)Cc1cncc(Br)c1 [SJ000521007]
62 | 15.666 | CCCN(CCCNc1ccnc2cc(Cl)ccc12)Cc1cc(OC(F)(F)F)ccc1OC [SJ000523011]
63 | -23.4028 | CCCN(CCCNc1c2ccc(Cl)cc2nc2ccc(OC)cc12)Cc1cccnc1 [SJ000575152]
64 | 6.077 | Clc1ccc2c(NCCCNCc3ccncc3)ccnc2c1 [SJ000523049]
65 | -9.039 | CCCN(CCCNc1c2ccc(Cl)cc2nc2ccc(OC)cc12)Cc1ccc([N+](=O)[O-])cc1 [SJ000520949]
66 | 11.045 | CCCN(CCCNc1ccnc2cc(C(F)(F)F)ccc12)Cc1ccc(Cl)c(C(F)(F)F)c1 [SJ000521015]
67 | 13.0054 | CCCN(CCCNc1ccnc2cc(C(F)(F)F)ccc12)Cc1cc2ccccc2s1 [SJ000520482]
68 | 9.225 | CC(C)(C)CCNCCCNc1ccnc2cc(Cl)ccc12 [SJ000521026]
69 | 15.6779 | CCCN(CCCNc1ccnc2cc(C(F)(F)F)ccc12)Cc1cnn(C)c1 [SJ000575182]
70 | 4.828 | CCCN(CCCNc1ccnc2cc(Cl)ccc12)Cc1cncc(Br)c1 [SJ000523004]
71 | 4.744 | Clc1ccc2c(NCCCNCc3ccccn3)ccnc2c1 [SJ000523050]
